Source: patent US20080279812A1, “Disease Prevention and Vaccination Prior to Thymic Reactivation” (Norwood Immunology, Ltd., priority 2003, published 2008)

Legend:
sex steroid levels [1] = experiment: Sex steroid ablation therapy of a patient with an LHRH agonist (Example 6); assay type: in vivo, human; details: single dose effective for 3 months
Method: The patient was given sex steroid ablation therapy in the form of delivery of an LHRH agonist. This was given in the form of either Leucrin (depot injection; 22.5 mg) or Zoladex® (implant; 10.8 mg), either one as a single dose effective for 3 months. […] In some cases it is also necessary to deliver a suppresser of adrenal gland production of sex steroids. Cosudex® (5 mg/day or 50 mg/day) may also be given as one tablet per day for the duration of the sex steroid ablation therapy. Alternatively, the patient is given a GnRH antagonist, e.g., Cetrorelix or Abarelix, as a subcutaneous injection

sex steroid levels [2] = experiment: Zoladex before autologous or allogeneic PBSCT (Example 31); assay type: in vivo, human; details: implant from day -21 before PBSC infusion
Method: Patients are male or female, aged 18 years or older that are due to undergo high-dose therapy (HDT) with PBSCT for malignant disease or BM failure. The 10.8 mg implant formulation (for men) of the Zoladex® is dispersed in a cylindrical rod of biodegradable and biocompatible polyglactins and is released continuously over 12 weeks following subcutaneous injection. The 3.6 mg implant (for women) is dispersed in a cylindrical rod of a biodegradable and biocompatible polyglactin and is released continuously over 28 days following subcutaneous injection. The implants are commercially supplied in a purpose-designed applicator with 14-16 gauge needles.
Reduction of sex steroids in the blood to minimal values may take several weeks. Consequently, 21 days prior to PBSC infusion (day 0), patients are injected with the sex steroid ablation therapy in the form of LHRH agonist Zoladex® (implant). For males, 10.8 mg goserelin as a single dose (effective for 3 months) are administered on day −21 with a further injection of 3.6 mg on day 63 (effective for 28 days). For females, 3.6 mg (effective for 28 days) are administered on day −21 and days 7, 35 and 63. […] Other doses may be deemed acceptable as determined readily by those skilled in the art. […]
Thymic function is determined by assessment of T cell subsets by flow cytometry, T cell responses in vitro, and production of TRECs.

[3] = test system: pituitary LH, serum testosterone; details: chronic administration, cited from earlier work

CC(C)C[C@H](NC(=O)[C@@H](COC(C)(C)C)NC(=O)[C@H](Cc1ccc(O)cc1)NC(=O)[C@H](CO)NC(=O)[C@H](Cc1c[nH]c2ccccc12)NC(=O)[C@H](Cc1cnc[nH]1)NC(=O)[C@@H]1CCC(=O)N1)C(=O)N[C@@H](CCCNC(=N)N)C(=O)N1CCC[C@H]1C(=O)NNC(N)=O [Zoladex®, goserelin acetate]
reduction of sex steroid levels (sex steroid levels [1]): effective in reducing sex steroid levels sufficiently to reactivate the thymus | reduction of sex steroid levels (sex steroid levels [2]): effective in reducing sex steroid levels sufficiently to reactivate the thymus | time to sustained suppression of pituitary LH ([3]; after initiation of therapy): ≤ 3 weeks | serum testosterone levels in males [3]: range normally seen in surgically castrated men
